Data reported in US20250288573A1 (H. LEE MOFFITT CANCER CENTER AND RESEARCH INSTITUTE, INC., priority 2018, published 2025).
“Also recorded” adds a separate entry of the source. Where two headings read alike, the source gives them in different places.

Experiments:
IL-2 [1] = assay: IL-2 mRNA and protein secretion in anti-CD3 stimulated human T cells; type: cell-based; conditions: anti-CD3 stimulation without CD28 co-stimulation, relative to DMSO
Description: (§1) IL-2 mRNA (FIG. 8A) and protein secretion (FIG. 8B) were measured in cells and culture supernatant, respectively. […] Cytokine levels were determined by ELISA. […] Results are representative of three independent experiments. […] Statistical analysis was conducted ANOVA, followed by Dunnett's multiple comparison test. *=p<0.05, ***=p<0.001 FIGS. 9A-9C show the structure of cereblon is concerved across different species. […] FIG. 9C is an overlay of human and mouse cereblon (Val380 and Ile391 for mCRBN; Glu377 and Val388 for hCRBN), are demarcated as thin tubes.
Cereblon acts as the E3 ubiquitin ligase (UbL) substrate receptor component of the DNA damage binding protein 1 (DDB1), cullin-4 (CUL4A and B), and ROC1 complex ([…]). […] Blood Cancer J 5, e354, 2015). […] […]. […] Br. J. Haematol. […] Leukemia 26:1425-1429, 2012), which is the hallmark of the immunomodulatory drug class.

IL-2 [2] = assay: IL-2 production in mouse T cells; type: cell-based; conditions: absence of CD28 co-stimulation
Description: as §1

cereblon (CRBN) [3] = target: T1, cereblon (CRBN) (Mus musculus, UniProt Q8C7D2); assay: Western blot of cereblon (CRBN) levels in mouse CD8+ T cells; type: cell-based; conditions: 24 hours of treatment
T1 construct: endogenous in cells; host or cells: mouse CD8+ T cells
T1 sequence (Q8C7D2 1-445): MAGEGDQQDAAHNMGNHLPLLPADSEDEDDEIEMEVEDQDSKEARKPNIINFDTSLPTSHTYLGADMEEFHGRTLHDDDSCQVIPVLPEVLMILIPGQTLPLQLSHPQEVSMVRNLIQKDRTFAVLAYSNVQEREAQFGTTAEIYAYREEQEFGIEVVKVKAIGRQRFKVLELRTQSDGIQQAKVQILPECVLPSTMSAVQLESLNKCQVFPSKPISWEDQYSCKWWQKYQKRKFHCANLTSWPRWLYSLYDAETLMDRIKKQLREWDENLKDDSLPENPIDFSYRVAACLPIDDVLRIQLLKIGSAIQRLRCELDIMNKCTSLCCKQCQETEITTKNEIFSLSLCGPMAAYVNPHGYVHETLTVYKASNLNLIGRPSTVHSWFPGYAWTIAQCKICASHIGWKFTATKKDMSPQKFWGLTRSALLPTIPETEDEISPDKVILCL

CRBN = target: T2, CRBN (Homo sapiens, UniProt Q96SW2); assay: Western blot for expression of CRBN relative to vinculin in human T cells (CRBN degradation); type: cell-based
T2 construct: endogenous in cells; host or cells: primary human T cells / CD8+ T cells from peripheral blood
T2 sequence (Q96SW2 whole entry): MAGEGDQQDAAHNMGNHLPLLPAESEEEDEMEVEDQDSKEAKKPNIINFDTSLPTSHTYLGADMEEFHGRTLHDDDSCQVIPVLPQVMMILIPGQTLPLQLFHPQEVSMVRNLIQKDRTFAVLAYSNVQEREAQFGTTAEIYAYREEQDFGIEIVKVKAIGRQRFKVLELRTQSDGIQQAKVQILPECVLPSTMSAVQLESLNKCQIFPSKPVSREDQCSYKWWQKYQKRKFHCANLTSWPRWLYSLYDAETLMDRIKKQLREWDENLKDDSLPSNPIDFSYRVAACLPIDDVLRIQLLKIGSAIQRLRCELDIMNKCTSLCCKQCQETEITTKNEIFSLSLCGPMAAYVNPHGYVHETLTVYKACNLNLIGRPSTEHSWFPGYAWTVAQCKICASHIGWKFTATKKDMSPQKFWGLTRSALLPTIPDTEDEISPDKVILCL
From the text: Bortez=bortezomib; MG132=proteasome inhibitor; MLN4924=NEDD8 inhibitor.
This assay is a standard Western blot assay for expression of CRBN relative to vinculin.
[…] 0.1 percent DMSO was used as a vehicle control.

Ikaros = target: T3, Ikaros (Homo sapiens, UniProt Q13422); assay: Ikaros degradation in isolated human CD8+ T cells; type: cell-based; conditions: increasing doses
T3 construct: This molecule has a DC50 for Ikaros at 10 μM and for CRBN at <1 μM; endogenous in cells; host or cells: isolated human CD8+ T cells
T3 sequence (Q13422 whole entry): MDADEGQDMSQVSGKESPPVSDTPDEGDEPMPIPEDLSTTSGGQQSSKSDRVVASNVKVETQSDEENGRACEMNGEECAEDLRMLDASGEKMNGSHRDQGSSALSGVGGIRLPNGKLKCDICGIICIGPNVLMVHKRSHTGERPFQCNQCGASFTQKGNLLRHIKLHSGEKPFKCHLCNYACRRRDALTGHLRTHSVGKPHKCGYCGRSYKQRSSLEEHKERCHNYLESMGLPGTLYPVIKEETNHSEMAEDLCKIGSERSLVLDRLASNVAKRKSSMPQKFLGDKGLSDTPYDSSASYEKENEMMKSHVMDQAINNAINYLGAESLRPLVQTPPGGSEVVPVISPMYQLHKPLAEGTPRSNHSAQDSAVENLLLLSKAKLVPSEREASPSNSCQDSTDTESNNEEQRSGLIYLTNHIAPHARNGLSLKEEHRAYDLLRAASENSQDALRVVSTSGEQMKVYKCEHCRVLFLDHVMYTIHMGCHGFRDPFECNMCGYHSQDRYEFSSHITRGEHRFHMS
Description: Isolated human CD8+ T cells were treated with increasing doses of EC1-168. This molecule has a DC50 for Ikaros at 10 μM and for CRBN at <1 μM. Unique functional properties may be afforded to the CDM compounds via distinct protein recruitment.
Isolated human CD8+ T cells were treated with increasing doses of EC2-134. This molecule has a DC50 for Ikaros at 10 nM and for CRBN at 100 μM. Unique functional properties may be afforded to the CDM compounds via distinct protein recruitment.

[4] = tested on: CD25 (IL-2 receptor alpha); assay: Expression of activation marker CD25 on activated human T cells; type: cell-based; conditions: 10 nM
From the text: FIG. 23 is a graph showing human T cells activated with a series of immunomodulatory drugs lead to higher levels of expression of the activation marker CD25 (IL-2 receptor alpha) compared to unstimulated cells and control activated cells.

cereblon (CRBN) [5] = target: T4, cereblon (CRBN) (Homo sapiens, UniProt Q96SW2); assay: Kd from ITC; type: binding
T4 sequence (Q96SW2 whole entry, species assumed): as the sequence (Q96SW2 whole entry) above

cereblon = target: T5, cereblon (Mus musculus, UniProt Q8C7D2); assay: Western blot of cereblon in splenic T cells / splenocytes of mice treated orally with a single dose; type: in vivo; conditions: single oral dose of 75 mg/kg
T5 construct: from tissue; host or cells: spleen: purified splenic T cells and total splenocytes of treated mice
T5 sequence (Q8C7D2 1-445): T1 sequence (Q8C7D2 1-445)
Description: FIG. 24 is a graph of results from Western blots from purified splenic T cells of mice treated orally with a single dose of 75 mg/kg SM2-145. Three mice were obtained from each time point (1, 6, 12, and 24 hrs) after treatment.
FIG. 25 contains a Western blot analysis of purified T cells from mice treated orally with a single dose of 75 mg/kg EC2-035 and EC2-134.

[6] = tested on: T cells expanded from patients with melanoma; assay: Cytokine assays (IL-2, IFN-γ) in T cells expanded from patients with melanoma; type: cell-based, human
From the text: Veh=vehicle-treated cells DMSO 0.1%

Pharmacokinetic studies = conditions: in vivo
cereblon (CRBN) [7] = target: T4, cereblon (CRBN); assay: Kd and % inhibition from FI; type: binding

cereblon (CRBN) levels (Western blot) (cereblon (CRBN) [3])	Kd (cereblon (CRBN) [5]) [µM]	remaining activity at 10 µM (CRBN; 10uM, read-out: Relative Density of CRBN (% of DMSO)) [%]	remaining activity at 0.01 µM (CRBN; 24 h, 10nM, human T cells, 24 hours, read-out: Relative Density of CRBN (% of DMSO)) [%]	intracellular cereblon levels (Western blot) (CRBN; human T cells, 24 hours of treatment)	DC50 (CRBN; human T cells, 24 hours, read-out: DC50 (concentration leading to 50% degradation of cereblon)) [µM]	stability in pharmacokinetic studies (Pharmacokinetic studies)	Kd (cereblon (CRBN) [7]; FI, read-out: Kd (FI) (converted)) [µM]	inhibition at 200 µM (cereblon (CRBN) [7]; read-out: % inhibition @ 200 uM from *FI) [%]	SMILES	IL-2 production (mRNA and protein secretion) (IL-2 [1])	IL-2 production (IL-2 [2])	DC50 (CRBN; isolated human CD8+ T cells, increasing doses, read-out: DC50 for CRBN) [µM]	DC50 (Ikaros) [µM]	expression of the activation marker CD25 [4]	cereblon levels in purified splenic T cells (cereblon)	T cell function (IL-2 and IFN-γ after anti-CD3 (OKT3) activation) [6]	specificity for CRBN degradation over Ikaros (CRBN; human T cells, 24 hours)
not									Nc1cccc2c1CN(C1CCC(=O)NC1=O)C2=O (stereo not drawn) [lenalidomide, Lenalidomide]	significantly increased; also recorded: augments IL-2 production	not						
									CS(=O)(=O)O.O=C1CC[C@H](N2Cc3c(OCc4ccc(CN5CCN(Cc6ccc(COc7cccc8c7CN([C@H]7CCC(=O)NC7=O)C8=O)cc6)CC5)cc4)cccc3C2=O)C(=O)N1 [EC1-168, (4-(4-(((2-((S)-2,6-dioxopiperidin-3-yl)-1-oxoisoindolin-4-yl)oxy)methyl)benzyl)-114-piperazin-1-yl)(4-(((2-((S)-2,6-dioxopiperidin-3-yl)-1-oxoisoindolin-4-yl)oxy)methyl)phenyl)methylium methyl sulfonate]			< 1	10	induces more immune potentiation			
reduced cereblon (CRBN) levels	6.6 ± 0.8	7.21	21	reduced intracellular cereblon levels	0.00288	Poor stability	6.59 ± 1.57	70.19 ± 0.28	O=C1CCC(N2Cc3c(CCCOCCOCCCc4cccc5c4CN(C4CCC(=O)NC4=O)C5=O)cccc3C2=O)C(=O)N1 (stereo not drawn) [SM2-145, 3,3′-(((Ethane-1,2-diylbis(oxy))bis(propane-3,1-diyl))bis(1-oxoisoindoline-4,2-diyl))bis(piperidine-2,6-dione)]						partial reduction in cereblon levels at 6 hours	actively increasing T cell function	Specificity is shown for CRBN degradation over Ikaros
